Source: patent publication US10669266B2, “Oxadiazole inhibitors of HIPK2 for treating kidney fibrosis” (ICAHN SCHOOL OF MEDICINE AT MOUNT SINAI, priority 2017, dated 2020)

System: lactate dehydrogenase (LDH) level in cell culture medium
Assay: LDH cytotoxicity assay of cell culture medium
Type: cell-based
Conditions: up to 30 μM, 16 hours of incubation
Protocol: Medium LDH measurement was performed using LDH Cytotoxicity Assay Kit (ThermoFisher scientific, NY) according to manufacturer's instructions.
In order to rule out the possibility that the reduction in Smad3 activity is due to the cytotoxicity of increasing concentration of compound, lactate dehydrogenase (LDH) level in cell culture medium was examined. LDH is released by damaged cells.

COc1ccc2cc(-c3nc(-c4ccc(Br)cc4)no3)cnc2c1 [Example 1, 3-(4-Bromophenyl)-5-(7-methoxyquinolin-3-yl)-1,2,4-oxadiazole]
LDH level in the culture medium: no significant increase
